Here are results for 21 compounds from US20180162862A1 (President and Fellows of Harvard College, priority 2015, published 2018).

The subject of one experiment is MSSA Newman. Nature of the experiment: MIC test in TSB medium with MTT staining, MSSA Newman. Type of experiment: cell-based, Staphylococcus aureus. As to conditions: Staphylococcus aureus, TSB, 37° C. The protocol: MIC Test (Methicillin Susceptible Staphylococcus aureus (MSSA Newman))
Overnight cultures of MSSA Newman were grown up in TSB medium at 37° C. The cultures obtained were normalized with TSB to OD600=0.6 and diluted 100-fold. 1.5 μL of a dilution series of Example Compounds in DMSO (100×, in duplicate), and the diluted bacterial culture (150 μL) was added to wells of a sterile, clear 96 well plate and incubated at 37° C.

The subject of the next experiment is S. aureus ATCC 29213. Nature of the experiment: MIC test according to CLSI M7-A9, S. aureus ATCC 29213. The format is cell-based. As to conditions: Staphylococcus aureus, ATCC29213; CLSI M7-A9, CAMHB, 24 h (Table 3); read-out: S. aureus ATCC 29213 MIC. The essentials:
(§1)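 Per CLSI M7-A9, DMSO stocks diluted in cation-adjusted Mueller Hinton broth, plates incubated 24 h at 37 °C in air. MIC is the lowest concentration giving complete inhibition of visible growth, read visually and at 600 nm.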

Another experiment relates to S. aureus Newman. Description: MIC test according to CLSI M7-A9, S. aureus Newman. The following applies: Staphylococcus aureus, CLSI M7-A9, CAMHB, 24 h (Table 3), read-out: S. aureus ATCC Newman MIC. Type of experiment: cell-based. The protocol: MIC Test (S. aureus ATCC 29213, S. aureus ATCC 43300 and S. aureus Newman)
Susceptibility testing of S. aureus ATCC 29213, ATCC 43300 and Newman was performed according to Clinical Laboratory Standard Institute (CLSI) guidelines M7-A9. Test articles were stored at room temperature prior to use, then dissolved in filtered sterile DMSO. Stock DMSO solutions were diluted further in cation-adjusted Mueller Hinton broth (CAMHB) to provide appropriate test concentrations. Cultures of S. aureus (ATCC 29213, ATCC 43300 or Newman) were added in accordance with CLSI guidelines and plates incubated at 37° C. in air for 24 h. Endpoints were determined visually (and by spectrophotometer at 600 nm) and the minimum inhibitory concentration (MIC) defined as the lowest concentration of test articles resulting in complete inhibition of visible bacterial growth. Results are detailed in Table 2 (S. aureus ATCC 29213 and ATCC 43300) and Table 3 (S. aureus ATCC 29213, ATCC 43300 and Newman).

For another experiment, the system named is S. aureus ATCC 43300. Nature of the experiment: MIC test according to CLSI M7-A9, S. aureus ATCC 43300. The following applies: Staphylococcus aureus, ATCC43300; CLSI M7-A9, CAMHB, 24 h (Table 3); read-out: S. aureus ATCC 43300 MIC. Type of experiment: cell-based. In short, it runs like this:
as §1

[1] abbreviates: MTT staining after 7 h, read-out: MSSA Newman MIC at 7 h.
Where [2] appears, read: MTT staining after 24 h, read-out: MSSA Newman MIC at 24 h.

Each structure is given as a SMILES string. Values after ≈ are worked out from the molar mass of the structure shown. Where two headings read alike, the source gives them in different places. Where only a bound is given, the exact number is not on record here.

By MIC is commonly meant the least concentration at which growth counts as inhibited. As for `CCCCNc1nc(-c2ccc(C(C)(C)C)cc2)nc2cc(=O)[nH]n12` [Example 16, 4-(butylamino)-2-(4-tert-butylphenyl)-6H,7H-pyrazolo[1,5-a][1,3,5]triazin-7-one], the results for the MIC in the experiment with MSSA Newman (setting [1]) and with MSSA Newman (setting [2]) were 6.2 µg/mL (≈ 18.3 µM) and 12.5 µg/mL (≈ 36.8 µM), respectively.

As for `CNc1nc(-c2ccc(C(C)(C)C)cc2)nc2cc(=O)[nH]n12` [Example 17, 2-(4-tert-butylphenyl)-4-(methylamino)-6H,7H-pyrazolo[1,5-a][1,3,5]triazin-7-one], the minimal inhibitory concentration (MIC) in the experiment with MSSA Newman (setting [1]) worked out at 50 µg/mL (≈ 168 µM).

In the case of `CC(C)(C)c1ccc(-c2nc(N)n3[nH]c(=O)cc3n2)cc1` [Example 37, 4-amino-2-(4-tert-butylphenyl)-6H,7H-pyrazolo[1,5-a][1,3,5]triazin-7-one], in the experiment on MSSA Newman (setting [1]), the MIC amounted to 25 µg/mL (≈ 88.2 µM).

For the compound `CC(C)(C)c1ccc(-c2nc(O)n3[nH]c(=O)cc3n2)cc1` [Example 38, 2-(4-tert-butylphenyl)-4-hydroxy-6H,7H-pyrazolo[1,5-a][1,3,5]triazin-7-one], the MIC in the experiment with MSSA Newman (setting [1]) and in the experiment with MSSA Newman (setting [2]) was 12.5 µg/mL (≈ 44 µM) in each case.

As for `Cc1cc(OCCNc2nc(-c3ccc(C(C)(C)C)cc3)nc3cc(=O)[nH]n23)ccc1Cl` [Example 46, 2-(4-tert-butylphenyl)-4-{[2-(4-chloro-3-methylphenoxy)ethyl]amino}-6H,7H-pyrazolo[1,5-a][1,3,5]triazin-7-one], the MIC in the experiment on MSSA Newman (setting [1]) and in the experiment on MSSA Newman (setting [2]) was 12.5 µg/mL (≈ 27.7 µM) in each case.

As for `CCCCNc1nc(-c2ccc(C)cc2)nc2cc(=O)[nH]n12` [Example 70, 4-(butylamino)-2-(4-methylphenyl)-6H,7H-pyrazolo[1,5-a][1,3,5]triazin-7-one], the minimum inhibitory concentration (MIC) in the experiment with MSSA Newman (setting [1]) and with MSSA Newman (setting [2]) was over 100 µg/mL in each case.

`CC(C)(C)c1ccc(-c2nc(NCCN3CCCCC3)n3[nH]c(=O)cc3n2)cc1` [Example 82, 2-(4-tert-butylphenyl)-4-{[2-(piperidin-1-yl)ethyl]amino}-6H,7H-pyrazolo[1,5-a][1,3,5]triazin-7-one]: the MIC with S. aureus ATCC 29213 came to 64 µg/mL (≈ 162 µM); with S. aureus Newman, 32 µg/mL (≈ 81.1 µM); with S. aureus ATCC 43300 it was 64 µg/mL (≈ 162 µM).

`CN(CCNc1nc(-c2ccc(C(C)(C)C)cc2)nc2cc(=O)[nH]n12)C1CCCCC1` [Example 83, 2-(4-tert-butylphenyl)-4-({2-[cyclohexyl(methyl)amino]ethyl}amino)-6H,7H-pyrazolo[1,5-a][1,3,5]triazin-7-one]: the MIC in the experiment on S. aureus ATCC 29213, with S. aureus Newman and in the experiment with S. aureus ATCC 43300 was 32 µg/mL (≈ 75.7 µM) in each case.

Consider `Cc1cc(OCCCN(CCO)c2nc(-c3ccc(C(C)(C)C)cc3)nc3cc(=O)[nH]n23)ccc1Cl` [Example 85], for which the minimum inhibitory concentration (MIC) with S. aureus ATCC 29213 worked out at 32 µg/mL (≈ 62.7 µM); with S. aureus Newman it was 4 µg/mL (≈ 7.84 µM); in the experiment with S. aureus ATCC 43300 it was 32 µg/mL (≈ 62.7 µM).

With `CC(C)(C)c1ccc(-c2nc(NCC(F)CNC3CCCCC3)n3[nH]c(=O)cc3n2)cc1` (stereo not shown) [Example 87, 2-(4-tert-butylphenyl)-4-{[3-(cyclohexylamino)-2-fluoropropyl]amino}-6H,7H-pyrazolo[1,5-a][1,3,5]triazin-7-one], the MIC in the experiment on S. aureus ATCC 29213, in the experiment with S. aureus Newman and in the experiment on S. aureus ATCC 43300 was 32 µg/mL (≈ 72.6 µM) throughout.

Turning to `Cc1oc(C(C)(C)C)cc1-c1nc2cc(=O)[nH]n2c(=S)[nH]1` [Example 92, 2-(5-tert-butyl-2-methylfuran-3-yl)-4-sulfanylidene-3H,4H,6H,7H-pyrazolo[1,5-a][1,3,5]triazin-7-one], the MIC in the experiment on S. aureus ATCC 29213 was 32 µg/mL (≈ 105 µM); with S. aureus Newman it was 8 µg/mL (≈ 26.3 µM); in the experiment on S. aureus ATCC 43300, 16 µg/mL (≈ 52.6 µM).

For the compound `Cc1oc(C(C)(C)C)cc1-c1nc(NCCCO)n2[nH]c(=O)cc2n1` [Example 93, 2-(5-tert-butyl-2-methylfuran-3-yl)-4-[(3-hydroxypropyl)amino]-6H,7H-pyrazolo[1,5-a][1,3,5]triazin-7-one], the MIC in the experiment on S. aureus ATCC 29213 turned out to be 32 µg/mL (≈ 92.6 µM); with S. aureus Newman, 16 µg/mL (≈ 46.3 µM); with S. aureus ATCC 43300, 32 µg/mL (≈ 92.6 µM).

Turning to `Cc1oc(C(C)(C)C)cc1-c1nc(NCCCNC2Cc3ccccc3C2)n2[nH]c(=O)cc2n1` [Example 94], the MIC in the experiment on S. aureus ATCC 29213, with S. aureus Newman and in the experiment on S. aureus ATCC 43300 was 16 µg/mL (≈ 34.7 µM) throughout.

In the case of `O=c1cc2nc(C34CC5CC(CC(C5)C3)C4)[nH]c(=S)n2[nH]1` [Example 99, 2-(adamantan-1-yl)-4-sulfanylidene-3H,4H,6H,7H-pyrazolo[1,5-a][1,3,5]triazin-7-one], the MIC in the experiment on S. aureus ATCC 29213 amounted to 64 µg/mL (≈ 212 µM); in the experiment on S. aureus Newman it was 32 µg/mL (≈ 106 µM); in the experiment on S. aureus ATCC 43300 it was 64 µg/mL (≈ 212 µM).

As for `O=c1cc2nc(C34CC5CC(CC(C5)C3)C4)nc(NCCCO)n2[nH]1` [Example 100, 2-(adamantan-1-yl)-4-[(3-hydroxypropyl)amino]-6H,7H-pyrazolo[1,5-a][1,3,5]triazin-7-one], the MIC with S. aureus ATCC 29213 amounted to 32 µg/mL (≈ 93.2 µM); with S. aureus Newman it was 16 µg/mL (≈ 46.6 µM); in the experiment on S. aureus ATCC 43300, 32 µg/mL (≈ 93.2 µM).

`O=c1cc2nc(C34CC5CC(CC(C5)C3)C4)nc(NCCCNC3Cc4ccccc4C3)n2[nH]1` [Example 101, 2-(adamantan-1-yl)-4-({3-[(2,3-dihydro-1H-inden-2-yl)amino]propyl}amino)-6H,7H-pyrazolo[1,5-a][1,3,5]triazin-7-one]: the MIC in the experiment with S. aureus ATCC 29213, in the experiment with S. aureus Newman and in the experiment with S. aureus ATCC 43300 was 8 µg/mL (≈ 17.4 µM) in each case.

With `CC(=O)c1ccc(-c2nc(NCCCNC3Cc4ccccc4C3)n3[nH]c(=O)cc3n2)cc1` [Example 103, 2-(4-acetylphenyl)-4-({3-[(2,3-dihydro-1H-inden-2-yl)amino]propyl}amino)-6H,7H-pyrazolo[1,5-a][1,3,5]triazin-7-one], the minimal inhibitory concentration (MIC) in the experiment on S. aureus ATCC 29213 was found to be 16 µg/mL (≈ 36.2 µM); with S. aureus Newman, 32 µg/mL (≈ 72.3 µM); with S. aureus ATCC 43300, 8 µg/mL (≈ 18.1 µM).

For the compound `CC(=O)c1ccc(-c2nc(NCCCOc3ccc(Cl)c(C)c3)n3[nH]c(=O)cc3n2)cc1` [Example 104, 2-(4-acetylphenyl)-4-{[3-(4-chloro-3-methylphenoxy)propyl]amino}-6H,7H-pyrazolo[1,5-a][1,3,5]triazin-7-one], the MIC with S. aureus ATCC 29213, in the experiment with S. aureus Newman and in the experiment with S. aureus ATCC 43300 was 32 µg/mL (≈ 70.8 µM) each time.

Take `CC(C)(O)c1ccc(-c2nc(NCCCNC3Cc4ccccc4C3)n3[nH]c(=O)cc3n2)cc1` [Example 105, 4-({3-[(2,3-dihydro-1H-inden-2-yl)amino]propyl}amino)-2-[4-(2-hydroxypropan-2-yl)phenyl]-6H,7H-pyrazolo[1,5-a][1,3,5]triazin-7-one]: the MIC in the experiment with S. aureus ATCC 29213 turned out to be 32 µg/mL (≈ 69.8 µM); with S. aureus Newman it was 32 µg/mL (≈ 69.8 µM); in the experiment with S. aureus ATCC 43300 it was 16 µg/mL (≈ 34.9 µM).

For `CC(C)(C)c1ccc(-c2nc3c(Cc4ccccc4)c(=O)[nH]n3c(=S)[nH]2)cc1` [Example 106, 8-benzyl-2-(4-tert-butylphenyl)-4-sulfanylidene-3H,4H,6H,7H-pyrazolo[1,5-a][1,3,5]triazin-7-one], the MIC is 2 µg/mL (≈ 5.12 µM) with S. aureus ATCC 29213, 1 µg/mL (≈ 2.56 µM) in the experiment on S. aureus Newman and 2 µg/mL (≈ 5.12 µM) in the experiment on S. aureus ATCC 43300.

In the case of `CC(C)(C)c1ccc(-c2nc(NCCCO)n3[nH]c(=O)c(Cc4ccccc4)c3n2)cc1` [Example 107, 8-benzyl-2-(4-tert-butylphenyl)-4-[(3-hydroxypropyl)amino]-6H,7H-pyrazolo[1,5-a][1,3,5]triazin-7-one], the MIC in the experiment on S. aureus ATCC 29213 was over 128 µg/mL; in the experiment with S. aureus Newman it was 64 µg/mL (≈ 148 µM); with S. aureus ATCC 43300, over 128 µg/mL.
